Laboratory results from PMC9324262, “Selective CDK9 Inhibition by Natural Compound Toyocamycin in Cancer Cells” (Cancers, 2022).
“Also recorded” adds a separate entry of the source.

What was measured:
[1] = design: method as in PMID 5646857; conditions: cited from earlier work
CDK2/Cyclin 2A = biological target: T1, CDK2/Cyclin 2A (Homo sapiens, UniProt P24941); assay: biochemical; conditions: 10 µM ATP, 30 °C, 60 min
T1 construct: purchased BPS Bioscience
Method: (§1) The in vitro enzymatic assays were conducted at BPS Bioscience. CDK9/Cyclin T1, CDK2/Cyclin 2A, CDK4/Cyclin D3, and CDK6/Cyclin D3 enzymatic activities were tested with an ATP Kinase-Glo Plus Luminescence kinase assay kit (Promega, V6073, Madison, WI, USA), while the CDK7/Cyclin H/MAT1 activities were tested using ADP-Glo Kinase (Promega, V6930). These assays measure kinase activity by quantifying the amount of ATP or ADP remaining in solution following a kinase reaction. The luminescent signal from the assay is correlated to the amount of ATP or ADP present and is inversely correlated to the kinase activity. The compounds were diluted to 10% DMSO and were added to the reaction so that the final concentration of DMSO was 1% in all reactions. All enzymatic reactions were conducted at 30 °C for 60 min. […] After the enzymatic reaction, the luminescence signal was measured using a BioTek Synergy 2 microplate reader (Agilent, Santa Clara, CA, USA). Kinase activity assays were performed in duplicate at each concentration and the percent of kinase activity was calculated as a ratio of luminescence intensities in the absence or in presence of the compounds. […] IC50 values were determined by the concentration causing a half-maximal percent activity (BPS Bioscience, San Diego, CA, USA).

YB5 cells [2] = assay: GFP reactivation in YB5 cell-based system (flow cytometry); design: species or system human
Method: YB5 cells are derived from SW48 cells (human colon cancer cell line), and contain a single insertion of a DNA hypermethylated cytomegalovirus (CMV) promoter driving the green fluorescent protein (GFP) gene, as previously described. YB5 cells are cultured in L-15 medium supplemented with 10% fetal bovine serum and grown in log-phase in 1% CO2 atmosphere. YB5 cells were authenticated by DNA fingerprinting prior to drug screening and validation experiments. GFP expression in YB5 cells is silenced in >99.9% of the cells due to the CMV promoter DNA hypermethylation and repressive chromatin marks around the transcriptional start site. The human HCT116 colon cancer-derived GFP-reporter system, comprising a GFP gene under the control of an endogenously hypermethylated SFRP1 gene promoter, was kindly provided by Dr. Stephen Baylin (Johns Hopkins University). These cells are cultured in McCoy’s 5A medium supplemented with 10% fetal bovine serum and grown in log-phase in 5% CO2 atmosphere at 37 °C. The 451-Lu-BR melanoma cells were a kind gift from Dr. Raza Zaidi (Fels Institute for Cancer Research and Molecular Biology, Temple University School of Medicine, Philadelphia). These cells are derived from parental 451-LU cells that have acquired resistance to BRAF inhibitors. The 451-Lu-BR cells were cultured at 37 °C in Dulbecco’s Modified Eagle Medium (DMEM) supplemented with 10% fetal bovine serum, L-alanyl-L-glutamine (2 mM), and gentamycin (50 µg/mL) in 5% CO2 at 37 °C. The natural drug library (natural product set II) containing 120 compounds was obtained from the National Cancer Institute Developmental Therapeutics Program. Natural compounds were dissolved in DMSO (10 mM) in 96-well plates that were kept at −80°C until use. Toyocamycin, analogues of toyocamycin (sangivamycin, tubercidin, 3-deaza-adenosine, DZNep), CDK inhibitors, and epigenetic drugs (decitabine, SAHA, trichostatin A, depsipeptide) were purchased from Sigma-Aldrich (St. Louis, MO, USA,) for validation studies, dissolved in DMSO, and kept at −80 °C until use.
YB5 cells were seeded at 30,000 cell/mL in 96-well plates (6000 cells/well) and treated 3 days after seeding. Cells were exposed to 120 natural compounds in 5 different experimental conditions: (1) 72 h exposure at 10 µM followed by 24 h recovery period prior to analysis; (2) 24 h treatment at 50 µM prior to analysis; (3) 72 h exposure at 10 µM of the compound library followed by 24 h treatment with HDAC inhibitor trichostatin A (200 nM) prior to analysis; (4) 72 h exposure at 10 µM in simultaneous combination with decitabine (50 nM) followed by 24 h recovery period prior to analysis; and (5) 72 h treatment with decitabine (50 nM) followed by 24 h exposure with the natural compound library (50 µM) prior to analysis. The scheme of different dose schedules is shown Figure S1A. During screening, drugs and cell culture media were replaced every day. To ensure the quality and the reproducibility of the screen, each 96-well plate was designed to include 80 natural compounds, 4 untreated wells, 4 wells treated with decitabine (50 nM, 72 h), 4 wells treated with trichostatin A (200 nM, 24 h), and their combination with decitabine (50 nM, 72 h) followed by trichostatin A treatment (200 nM, 24 h) prior to flow cytometry analysis. The percentage of GFP-expressing cells in control wells (untreated or treated with known epigenetic drugs) was measured and was reproducible between different plates.
After treatment, YB5 cells were trypsinized for 15 min and resuspended in L-15 media containing propidium iodide (PI) to stain dead cells. GFP expression and PI staining were quantified by a BD LSR II flow cytometer (BD Biosciences, San Jose, CA, USA). A maximum of 10,000 cells was analyzed per well. Validations were performed using a Millipore Guava flow cytometer (EMD, Millipore, Burlington, MA, USA). […]

YB5 cells [3] = assay: anchorage-dependent clonogenic assay; format: cell-based, human; conditions: 2 weeks drug-free
Method: Two hundred YB5 cells were seeded per well in 6-well plates. On the following day, YB5 cells were treated with toyocamycin for 24 h or 72 h. Decitabine (10–50 nM for 72 h) was used as a positive control for the loss of clonogenic potential. Drugs and media were replaced each day. After treatment, media was removed. YB5 cells were grown in drug-free media for 2 weeks to allow visible colony formation prior to colony staining (0.5% methylene blue in 50% methanol). YB5 colonies were counted manually.

CDK4/Cyclin D3 = biological target: T2, CDK4/Cyclin D3 (Homo sapiens, UniProt P11802); assay: in vitro kinase assay CDK4/Cyclin D3 (Kinase-Glo Plus); format: biochemical
T2 construct: purchased BPS Bioscience
Method: as §1

[4] = test system: CMV promoter in YB5 cells; assay: DNA methylation by bisulfite pyrosequencing, CMV promoter; format: cell-based, human; conditions: 0.05–50 µM, 72 h
Source text: We analyzed DNA methylation levels on the CMV promoter region and LINE-1 repeated elements (as a marker of global DNA methylation level). After DNA extraction and bisulfite conversion, PCR amplification of regions of interest and pyrosequencing were achieved as previously described.

T2 sequence (P11802 whole entry): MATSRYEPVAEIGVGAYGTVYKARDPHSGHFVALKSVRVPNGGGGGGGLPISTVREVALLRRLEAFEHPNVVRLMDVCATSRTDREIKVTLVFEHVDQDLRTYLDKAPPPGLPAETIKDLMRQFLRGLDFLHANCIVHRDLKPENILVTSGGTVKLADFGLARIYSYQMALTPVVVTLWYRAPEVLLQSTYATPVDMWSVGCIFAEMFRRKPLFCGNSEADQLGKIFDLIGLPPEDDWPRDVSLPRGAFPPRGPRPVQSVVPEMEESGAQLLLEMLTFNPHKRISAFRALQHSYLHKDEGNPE
T2 sequence (P30281 whole entry partner): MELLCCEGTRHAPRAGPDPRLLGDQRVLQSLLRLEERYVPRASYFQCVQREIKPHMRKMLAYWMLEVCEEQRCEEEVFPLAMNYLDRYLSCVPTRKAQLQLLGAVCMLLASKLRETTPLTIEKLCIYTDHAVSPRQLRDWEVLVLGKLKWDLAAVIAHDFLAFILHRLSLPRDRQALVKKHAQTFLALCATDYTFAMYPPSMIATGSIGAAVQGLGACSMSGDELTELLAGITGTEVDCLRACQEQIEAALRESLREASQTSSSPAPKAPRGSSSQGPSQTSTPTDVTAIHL

For `N#Cc1cn([C@@H]2O[C@H](CO)[C@@H](O)[C@H]2O)c2ncnc(N)c12` [toyocamycin, 7-Deaza-7-cyanoadenosine], the systemic toxic effects ([1]; 10–200 µg/kg for 5 days, intravenous infusion over 1–2 h, twenty-three cancer patients) is listed as “No systemic toxic effects were observed”, the local toxicity ([1]; patients receiving the highest doses, intravenous infusion) is listed as “local toxicity at the site of injection (severe phlebitis)” and the IC50 (CDK2/Cyclin 2A) is listed as 0.67 µM. The “GFP-expressing YB5 cells” value (YB5 cells [2]; 250 nM, 48 h) was “about 10%”, the “YB5 cells expressing GFP” value (YB5 cells [2]; 5 µM, 72 h) was “More than 60%” and the “GFP expression, % of YB5 cells” value (YB5 cells [2]; sequential combination with decitabine, toyocamycin 0.5–5 µM) was “up to 40%”. The “GFP-expressing cells with CDK9 overexpression (HA-CDK9, FLAG-CDK9)” value (YB5 cells [2]; toyocamycin 250 nM 48 h, MC180295 500 nM 48 h) was “reduction in the number of GFP-expressing cells”, the colony formation (YB5 cells [3]; 10 nM, 24 h treatment) was “completely abrogated colony formation; also recorded: full eradication of the clonogenic potential” and the colony formation (YB5 cells [3]; 10–50 nM, 72 h treatment) was “fully abolished colony formation”. For the same molecule, the IC50 (CDK4/Cyclin D3) was 15 µM and the “DNA methylation on CMV promoter” value [4] was “no changes in DNA methylation”.
